The target in assay [1] is B-Raf kinase (SEQ. ID NO: 2) (Homo sapiens (Human), UniProt P15056). Put plainly: Biochemical Assay for B-Raf (1). The note with it: Table J, assay version (1); read-out: BRAF (1) IC50. A digest of the protocol: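 IC50 derived by four-parameter sigmoidal fit of percent inhibition, normalised to uninhibited and reference-inhibitor controls, using reaction rates over 4–5 h. Coupled spectrophotometric readout (NADH loss at 340 nm, 6 h, 30° C.); 1 mM ATP, 30.1 nM MEK, 0.13 nM B-Raf, pH 7.5 Tris buffer, 1% DMSO.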
Sequence of B-Raf kinase (SEQ. ID NO: 2) (P15056 416-766): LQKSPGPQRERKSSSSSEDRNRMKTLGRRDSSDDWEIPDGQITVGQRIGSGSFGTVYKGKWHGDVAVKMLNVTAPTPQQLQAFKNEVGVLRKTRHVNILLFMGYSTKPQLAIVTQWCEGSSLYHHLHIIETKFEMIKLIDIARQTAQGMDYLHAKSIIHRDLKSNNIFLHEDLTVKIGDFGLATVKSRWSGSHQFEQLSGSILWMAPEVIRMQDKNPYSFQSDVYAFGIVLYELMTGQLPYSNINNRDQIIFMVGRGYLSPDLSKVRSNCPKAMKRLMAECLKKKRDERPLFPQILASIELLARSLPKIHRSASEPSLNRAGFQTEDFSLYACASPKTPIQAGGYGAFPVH

The target in assay [2] is C-Raf kinase (SEQ. ID NO: 3) (Homo sapiens (Human), UniProt P04049, Y340D/Y341D). As to the kind of experiment: Biochemical Assay for C-Raf (1). The note with it: Table J, assay version (1); read-out: CRAF (1) IC50. The method, boiled down: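 IC50 values come from a four-parameter fit of percent inhibition, using the reaction rate over 4–5 h of a 6 h continuous 340 nm read at 30 °C. The enzyme mix was C-Raf 0.43 nM, MEK substrate 30.1 nM and ATP 1 mM, in a PK/LDH NADH-coupled format in Tris pH 7.5 with 1% DMSO.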
Sequence of C-Raf kinase (SEQ. ID NO: 3) (P04049 307-648 Y340D/Y341D): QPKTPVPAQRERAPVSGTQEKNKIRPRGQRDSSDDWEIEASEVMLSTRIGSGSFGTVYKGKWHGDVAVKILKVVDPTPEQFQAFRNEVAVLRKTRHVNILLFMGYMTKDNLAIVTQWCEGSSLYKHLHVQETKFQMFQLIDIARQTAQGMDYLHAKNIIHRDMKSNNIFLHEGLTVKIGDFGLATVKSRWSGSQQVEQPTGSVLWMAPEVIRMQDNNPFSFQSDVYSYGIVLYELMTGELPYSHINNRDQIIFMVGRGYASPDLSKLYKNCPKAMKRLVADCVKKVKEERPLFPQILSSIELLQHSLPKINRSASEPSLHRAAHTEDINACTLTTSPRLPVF

In assay [3] the target is B-Raf (V600E) (SEQ. ID NO: 4) kinase (Homo sapiens (Human), UniProt P15056, V600E). As to the kind of experiment: Biochemical Assay for B-Raf (V600E) (1). The note with it: Table J, BRAF V600E, assay version (1); read-out: BRAF VE (1) IC50. A digest of the protocol: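 Serially diluted compounds tested against 0.03 nM enzyme with 30.1 nM MEK substrate and 1 mM ATP (Tris pH 7.5, 15 mM MgCl2), ATP use coupled to NADH loss via PK/LDH. A340 monitored continuously 6 h, 30 °C; IC50 fitted (four-parameter) from the 3–4 h rate versus no-compound and known-inhibitor controls.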
Sequence of B-Raf (V600E) (SEQ. ID NO: 4) kinase (P15056 416-766 V600E): as the sequence (P15056 416-766) above, with V185E counted along it

Another assay relates to WM3928 cells. As to the kind of experiment: WM3928 Cell Proliferation Assay (1). The format is cell-based. The method, boiled down:
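IC50 was derived from resazurin fluorescence (ex 540, em 600 nm) after a 6–7 h dye incubation. Before that, cells had 67–72 h of compound exposure at 37 °C, 5% CO2.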

Turning to `Cc1cc(F)c(NC(=O)c2ccnc(C3(C#N)CC3)c2)cc1-c1ccnc(-c2ccnc(NC(=O)C3CC3)c2)n1` [Example 262], the IC50 (in assay [1]; in assay [2]; in assay [3]; with WM3928 cells) was not above 0.1 µM in each case.
Regarding `Cc1ccc(NC(=O)c2ccnc(C(C)(C)C#N)c2)cc1-c1cccc(-c2cc(NC(=O)C3(F)CC3)ncn2)c1` [Example 200], the IC50 (usually the concentration needed to halve the response being measured) is 0.1 to 0.5 µM in assay [1], not above 0.1 µM in assay [2], not above 0.1 µM in assay [3] and not above 0.1 µM with WM3928 cells.
Consider `Cc1ccc(NC(=O)c2ccnc(C3(C#N)CC3)c2)cc1-c1nccc(-c2ccnc(NC(=O)C3CC3)c2)n1` [Example 187], for which the IC50 (in assay [1]; in assay [2]; in assay [3]; in the assay on WM3928 cells) was not above 0.1 µM each time.
Take `Cc1cc(F)c(NC(=O)c2cnnc(C3CC3)c2)cc1-c1nccc(-c2ccnc(NC(=O)C3CC3)c2)n1` [Example 252]: the IC50 is not above 0.1 µM in assay [1], not above 0.1 µM in assay [2], not above 0.1 µM in assay [3] and 0.5 to 1 µM in the assay with WM3928 cells.
As for `Cc1ccc(NC(=O)c2ccnc(C(C)(C)C#N)c2)cc1-c1cc(-c2ccnc(NC(=O)C3CC3)c2)cnn1` [Example 245], the 50% inhibitory concentration (IC50) (in assay [1]; in assay [2]; in assay [3]; in the assay with WM3928 cells) was not above 0.1 µM each time.
As for `Cc1ncc(NC(=O)c2ccnc(C3CC3)c2)cc1-c1ccnc(-c2ccnc(NC(=O)C3CC3)c2)n1` [Example 277], the IC50 in assay [1] is not above 0.1 µM; in assay [2] it was not above 0.1 µM; in assay [3] it was not above 0.1 µM; with WM3928 cells, 0.1 to 0.5 µM.
With `Cc1ccc(NC(=O)c2ccnc(C(C)(C)C#N)c2)cc1-c1ccnc(-c2ccnc(NC(=O)C3(C#N)CC3)c2)n1` [Example 241], the IC50 (in assay [1]; in assay [2]; in assay [3]; in the assay with WM3928 cells) was not above 0.1 µM throughout.
`CNC(=O)c1cc(-c2cc(-c3cc(NC(=O)c4ccnc(C5(C#N)CC5)c4)ccc3C)ccn2)ccn1` [Example 265]: the IC50 (in assay [1]; in assay [2]; in assay [3]; in the assay on WM3928 cells) was not above 0.1 µM in each case.
Consider `CNC(=O)c1cc(-c2cc(-c3cc(NC(=O)c4cccc(C(C)(C)C#N)c4)ccc3C)cc(OCCO)n2)ccn1` [Example 231], for which the IC50 (in assay [1]; in assay [2]; in assay [3]; in the assay with WM3928 cells) was not above 0.1 µM each time.
`Cc1ccc(NC(=O)c2ccnc(C(C)(C)C#N)c2)cc1-c1cnnc(-c2ccnc(NC(=O)C3CC3)c2)c1` [Example 230]: the IC50 (in assay [1]; in assay [2]; in assay [3]; with WM3928 cells) was not above 0.1 µM in each case.
As to `CNC(=O)c1cc(-c2cccc(-c3cc(NC(=O)c4ccnc(C(C)(C)C#N)c4)cnc3C)c2)ncn1` [Example 204], the half-inhibitory concentration (IC50) is 0.1 to 0.5 µM in assay [1], 0.1 to 0.5 µM in assay [2], not above 0.1 µM in assay [3] and 0.1 to 0.5 µM in the assay on WM3928 cells.
With `Cc1ncc(NC(=O)c2ccnc(C3CC3)c2)cc1-c1cnc(C)c(-c2ccnc(NC(=O)C3CC3)c2)c1` [Example 256], the IC50 in assay [1] was not above 0.1 µM; in assay [2], not above 0.1 µM; in assay [3], not above 0.1 µM; in the assay with WM3928 cells, 0.5 to 1 µM.
As for `Cc1ncc(NC(=O)c2ccnc(C(C)(C)C#N)c2)cc1-c1cccc(-c2cc(NC(=O)C(C)(C)C)ncn2)c1` [Example 213], the IC50 was 1 to 10 µM in assay [1], 0.5 to 1 µM in assay [2], not above 0.1 µM in assay [3] and 0.1 to 0.5 µM with WM3928 cells.
For `Cc1ncc(NC(=O)c2ccnc(C3CC3)c2)cc1-c1ccnc(-c2ccnc(NC(=O)C3CC3)c2)c1` [Example 253], in that order: not above 0.1 µM, not above 0.1 µM, not above 0.1 µM and not above 0.1 µM.
For `Cc1ccc(NC(=O)c2ccnc(C3(C#N)CC3)c2)cc1-c1cccc(-c2cc(NC(=O)C3CC3)ncn2)c1` [Example 203], in that order: not above 0.1 µM, not above 0.1 µM, not above 0.1 µM and not above 0.1 µM.
For `Cc1cc(F)c(NC(=O)c2cnnc(C3CC3)c2)cc1-c1ccnc(-c2ccnc(NC(=O)C3CC3)c2)n1` [Example 263], in that order: not above 0.1 µM, not above 0.1 µM, not above 0.1 µM and 0.5 to 1 µM.
For `Cc1cc(F)c(NC(=O)c2ccnc(C(F)(F)F)c2)cc1-c1cncc(-c2ccnc(NC(=O)C3CC3)c2)n1` [Example 271], the IC50 (in assay [1]; in assay [2]; in assay [3]; in the assay on WM3928 cells) was not above 0.1 µM each time.
On to `Cc1ccc(NC(=O)c2ccnc(C3(C#N)CC3)c2)cc1-c1cccc(-c2cc(NC(=O)C3CC3)ncn2)n1` [Example 220], for which the IC50 in assay [1] was 0.1 to 0.5 µM; in assay [2], 0.1 to 0.5 µM; in assay [3], not above 0.1 µM; in the assay with WM3928 cells, 1 to 10 µM.
Turning to `Cc1ccc(NC(=O)c2ccnc(C(C)(C)C#N)c2)cc1-c1cc(-c2cc(NC(=O)C3CC3)ncn2)cc(C2CC2)c1` [Example 216], the IC50 is 0.1 to 0.5 µM in assay [1], 0.1 to 0.5 µM in assay [2], not above 0.1 µM in assay [3] and not above 0.1 µM in the assay with WM3928 cells.

The values above are taken from patent US12319655B2, “RAF kinase inhibitors and methods of use thereof” (Deciphera Pharmaceuticals, LLC, priority 2021, dated 2025).
